Numbering of substitutions follows the chain as printed.
B1: FL-LPL: HA-TAT fused full-length L-plastin protein (70-75 kDa), purified from bacterial expression vector pTAT-HA (protein, UniProt P13796 1-627, looked up)
chain: MARGSVSDEEMMELREAFAKVDTDGNGYISFNELNDLFKAACLPLPGYRVREITENLMATGDLDQDGRISFDEFIKIFHGLKSTDVAKTFRKAINKKEGICAIGGTSEQSSVGTQHSYSEEEKYAFVNWINKALENDPDCRHVIPMNPNTNDLFNAVGDGIVLCKMINLSVPDTIDERTINKKKLTPFTIQENLNLALNSASAIGCHVVNIGAEDLKEGKPYLVLGLLWQVIKIGLFADIELSRNEALIALLREGESLEDLMKLSPEELLLRWANYHLENAGCNKIGNFSTDIKDSKAYYHLLEQVAPKGDEEGVPAVVIDMSGLREKDDIQRAECMLQQAERLGCRQFVTATDVVRGNPKLNLAFIANLFNRYPALHKPENQDIDWGALEGETREERTFRNWMNSLGVNPRVNHLYSDLSDALVIFQLYEKIKVPVDWNRVNKPPYPKLGGNMKKLENCNYAVELGKNQAKFSLVGIGGQDLNEGNRTLTLALIWQLMRRYTLNILEEIGGGQKVNDDIIVNWVNETLREAKKSSSISSFKDPKISTSLPVLDLIDAIQPGSINYDLLKTENLNDDEKLNNAKYAISMARKIGARVYALPEDLVEVNPKMVMTVFACLMGKGMKRV
modifications: full-length HA-TAT tag
notes: HA-TAT fused full-length L-plastin protein (70-75 kDa), purified from bacterial expression vector pTAT-HA
B2: mutated FL-LPL: TAT-fused full-length L-plastin with Ser-5 and Ser-7 mutated to Ala-5 and Ala-7 (protein, UniProt P13796 1-627, looked up, variant S5A S7A)
chain: B1 chain with S5A, S7A
modifications: full-length HA-TAT tag

How the values were obtained:
Format in all cases: cell-based, mouse
osteoclasts [1] = assay: Osteoclast migration (transwell and phagokinesis assays)
From the text: Transwell migration was done essentially as reported previously (Chellaiah et al., 2000, J. Cell Biol., 148: 665-678). Osteoclasts that migrated to the underside of the transwell membrane were stained with hematoxylin stain. Dried filters ware cut out and mounted with a permount solution (Thomas Scientific, Swedesboro, N.J.) on a glass slide. Cells were viewed under X40 objective in an inverted microscope. Six fields per transwell insert were counted using a Zeiss microscope as described previously (Chellaiah et al., 2000, J. Biol. Chem., 275: 11993-12002). Data are presented as the number of cells per migrated field (mean±SD) from one experiment.
Cell migration (phagokinesis and transwell migration) assays were done as described previously (Chellaiah et al., 2000, J. Cell Biol., 148: 665-678). Osteoclasts transduced with sNT-LPL peptides (P1, P2, P5, and P6) were used for these assays. Three to four transwells were used for each treatment. Migrated cells at the bottom of the wells were counted in 3-4 independent fields/transwell filter. Data are presented as migrated cells/field (mean±SD). The experiment was repeated with three osteoclast preparations. In phagokinesis assay, cell motility was assessed by measuring the areas free of gold particles. By using a grided reticule (Boyce Scientific. Inc.) in the eyepiece of a Nikon microscope, areas free of gold particles were measured using a 10× objective. Areas free of gold particles were represented as area moved in mm^2 (Chellaiah et al., 2000, J. Cell Biol., 148: 665-678),

endogenous LPL = assay: Phosphorylation of endogenous (cellular) LPL in osteoclasts (LPL immunoprecipitation, p-Serine immunoblot); details: for inhibitory effect on the phosphorylation of cellular LPL: sNT-LPL peptides, 3-4 hours; for inhibitory effect on the phosphorylation of cellular LPL / phosphorylation of endogenous LPL: bone particles and TNF-α; for phosphorylation of endogenous LPL: TAT-fused LPL peptides 150 nM, 3 hours
Description: Bone particles (60-80 μm in size) were prepared as described previously (Ma et at, 2010, J. Biol. Chem., 285: 29911-29924). After flushing the marrow cells for osteoclast differentiation as described above, long bones of mice (free of cells inside and muscles outside) were washed extensively with PBS and kept in ethanol until use. Long bones were air-dried in the hood and homogenized by a mini blender. Bone particles were sieved and used for experiments. Multinucleated osteoclasts were seen from day four onward. At this time cultures were added with bone particles (100 μg/ml media) for 3-4 hours or 12-14 hours in the presence of TNF-α (20 ng/ml). Some cultures were treated with 3-5 μg/ml TNFR1 antibody. Osteoclasts were preincubated with the TNFR1 antibody for 60-90 minutes before the addition of TNF-α to enhance the blocking effect. Osteoclasts incubated with bone particles for 3-4 or 12-14 hours in the presence of TNF-α were used for lysate preparations.
(§1) The vector pTAT-HA has an N-terminal 6-histidine leader (Nagahara et al., 1998, Nature Medicine, 4:1449-1452). […] For transduction with TAT-fused peptides (100-150 nM), osteoclasts were first kept in serum-free α-MEM for two hours. Afterward, TAT proteins of interest, bone particles, and TNF-α were added to cells in serum-free α-MEM Lysates were made from these cells for immunoprecipitation and immunoblotting analyses. Osteoclasts plated on dentine slices in the presence of TAT-proteins of interest and TNF-α for 3-6 hours or 12-14 hours were used for immunostaining or actin staining analyses. Osteoclast cultures treated only with TNF-α were used as controls.
Following various treatments, osteoclasts were washed three-times with cold PBS and lysed in a radioimmune precipitation buffer (RIPA; 10 mM Tris-HCl, pH 7.2, 150 mM NaCl, 1% deoxycholate, 1% Triton X-100, 0.1% SDS, 1% aprotinin, 2 mM PMSF, […], and 1% aprotinin). Cells were rocked on ice for 15 minutes and scraped off with a cell scraper. Cell lysates were centrifuged at 15,000 rpm for 5 minutes at 4° C., and the supernatant was saved. Protein contents were measured using Bio-Rad protein assay reagent. Equal amounts of lysate proteins (100-150 μg) were used for immunoprecipitations. Immunoprecipitations and Western blotting were done as described previously (Chellaiah et al., 1998, J. Biol. Chem., 273: 11908-11916; Chellaiah et al., 1996, Mol. Biol. Cell, 7: 743-753).
(§2) After cells were kept in the serum-free α-MEM medium for two hours, LPL peptides of interest were added to a final concentration of 100-150 nM to cells in serum-free media (Chellaiah et al, 2000, J. Biol. Chem., 275: 11993-12002). Osteoclasts transduced with peptides of interest and added with bone particles in the presence of TNF-α for 3-4 hours or 12-14 hours were used for lysate preparations. Cells plated on coverslips and treated with peptides were used for actin staining to detect podosomes. After transduction for 30 min., osteoclasts were re-plated on dentine slices with respective LPL peptide and TNF-α for 3-6 hours or 12-14 hours. These cells were used for Actin staining with rhodamine-phalloidin or immunostaining analyses (Chellaiah et al., 2000, J. Biol. Chem., 275: 11993-12002; Chellaiah et al., 2000, J. Cell. Biol., 148: 665-678; Chellaiah et al., 2003, J Biol Chem 278: 29086-29097).
Following various treatments, osteoclasts were washed three times with cold PBS and lysed in a Triton-containing lysis buffer as described (Chellaiah et al., 1996, Mol. Biol. Cell, 7: 743-753). Cells were rocked on ice for 15 minutes, and scraped off with a cell scraper. Cell lysates were centrifuged at 15,000 rpm for 5 minutes, at 4° C., and the supernatant was saved. Protein contents were measured using Bio-Rad protein assay reagent. Osteoclast cultures were also subjected to a trypan blue dye (Sigma T8154) exclusion test to determine the viability of osteoclasts after various treatments. […]

osteoclasts [2] = assay: Sealing ring formation in osteoclasts plated on dentine; details: for formation of mature sealing rings: sNT-LPL peptides, time course to 10 hours; for number of sealing rings: dentine 10-12 hours, TNF-α
Description: as §1
Osteoclast precursors (10^5 cells/coverslips) were cultured on glass cover slips or dentine slices. Fluorescent labeling was done in osteoclasts transduced or untransduced with TAT-proteins. HA or TAT antibody was used to identify the transduced peptides of interest; rhodamine phalloidin was used to determine actin organization (Chellaiah et al., 2000, J. Cell Biol., 148: 665-678; Chellaiah et al., 2000, J. Biol. Chem., 275: 11993-12002). Immunostained and actin stained osteoclasts were photographed with a Bio-Rad confocal laser-scanning microscope. Images were stored in TIF image format and processed by Adobe Photoshop (Adobe Systems Inc., Mountain View. Calif.).
as §2
Osteoclasts were fixed with 3% paraformaldehyde for 20 minutes and permeabilized with 0.1% Triton X-100 in PBS for 5 minutes. Subsequently, osteoclasts were stained with a primary (HA or integrin αv) and secondary antibody as described (Chellaiah et al., 2003, J Biol Chem 278: 29086-29097). Actin staining was done with rhodamine-phalloidin as described (Chellaiah et al., 2000, J. Biol. Chem., 275: 11993-12002; Chellaiah et al., 2000, J. Cell Biol., 148: 665-678). […]

[3] = phagokinesis and transwell migration assays, sNT-LPL peptides
[4] = transwell migration, TAT-fused LPL peptides

Molecule	migration (osteoclasts [1]; [3])	inhibitory effect on the phosphorylation of cellular LPL (endogenous LPL)	cellular levels of LPL (endogenous LPL; FIG. 8B and FIG. 13B (mouse and RAW-derived osteoclasts))	formation of mature sealing rings (osteoclasts [2])	migration (osteoclasts [1]; [4])	phosphorylation of endogenous LPL (endogenous LPL)	number of sealing rings (osteoclasts [2])	number of sealing rings (osteoclasts [2]; listed as PL-LPL)
MARGAVADEE [Peptide P2, TAT-fused sNT-LPL peptide, Ser-5 and Ser-7 substituted to Alanine (A5A7)]	Neither the migration (FIG. 12A-FIG. 12C) nor the formation the podosomes (FIG. 12D) was affected	No significant inhibitory effect	–	–	–	–	–	–
MARGSVSDEE [Peptide P1, TAT-fused small molecular weight (10aa) amino-terminal LPL peptide, unsubstituted (S5S7)]	Neither the migration (FIG. 12A-FIG. 12C) nor the formation the podosomes (FIG. 12D) was affected	inhibition is significant	did not change	abrogated	–	–	–	–
SRSGMVEEAD [Peptide P5, TAT-fused scrambled sNT-LPL peptide, control, reference compound]	Neither the migration (FIG. 12A-FIG. 12C) nor the formation the podosomes (FIG. 12D) was affected	No significant inhibitory effect	–	time-dependent organization	–	–	–	–
B1	–	–	–	–	does not affect	basal level phosphorylation	Multiple sealing rings	increased
B2	–	–	–	–	does not affect	basal level phosphorylation	–	–

From patent US11485762B2, “Compositions and methods for inhibition of L-plastin activity in osteoclasts to reduce bone loss” (University of Maryland, Baltimore, priority 2017, dated 2022)
